Source: patent US8648086B2, “5,6-bicyclic heteroaryl-containing urea compounds as kinase inhibitors” (Ascepion Pharmaceuticals, Inc., priority 2009, dated 2014)

System: HT-29 human colon cancer
Assay: In vivo anti-tumor efficacy, HT-29 xenograft
Conditions: Colon cancer HT-29, nu/nu Balb/c mice, 50 mg/kg oral once per day, n = 2 × 3
Experimental: Female (nu/nu) Balb/c athymic mice at 4-6 weeks of age were injected subcutaneously (s.c.) with MDA-MB-231 human breast cancer cells, A549 human non-small cell lung cancer cells, U87-MG human glioblastoma cells, PC-3 human prostate cancer cells, HT-29 human colon cancer, BEL-7404 human hepatocellular carcinoma, or MKN-45 human gastric cancer cells (ATCC, 5×10^6 cells suspended in 100 μl DMEM medium). Treatment was initiated after the tumor mass grown from s.c. implanted tumor cells reached a median volume of 200-400 mm^3. Mice were randomized into groups with three in each group for small-sample efficacy tests such that the median tumor volume is nearly equal among all groups. […] Tumor volumes were assessed at least twice weekly by caliper measurement from the start of treatment. Tumor volume was calculated using the formula ½×L×W^2 (L: length of tumor's long axis, W: length of tumor's short axis). […] The efficacy of compounds in reducing tumor growth was assessed by the index Tumor Growth Inhibition (TGI). TGI for a given treatment period was calculated using the group mean tumor volumes according to the formula: TGI=100×(VVehicle—group−VTreatment—group)÷VVehicle—group wherein VVehicle—group represents the mean tumor volume for the group treated with vehicle and VTreatment—group represents the mean tumor volume of the group treated with a compound.

Cl.O=C(Nc1cc(Cl)ccc1F)Nc1cccc2c1ccn2Cc1ccnc2[nH]ccc12 [Example 56, 1-(2-Fluoro-5-chlorophenyl)-3-[1-(1H-pyrrolo[2,3-b]pyridin-4-ylmethyl)-1H-indol-4-yl]urea hydrochloride]
Tumor Growth Inhibition (TGI): A (the TGI is greater or equal to 50%)
